Common to all, as to assay: Kinase panel enzymatic inhibition assay (Nanosyn)
Common to all, as to assay type: biochemical
Common to all, as to settings: compound 5 μM; ATP at Km; 30-minute pre-incubation

One test deals with T1, CLK4 (Homo sapiens, UniProt Q9HAZ1).
T1 construct: purchased Nanosyn (contract screening)
The method, boiled down: (§1)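 Single-point screen: compound 5 μM, ATP at Km per kinase, 30 min pre-incubation. Readout by mobility shift (Caliper LabChip), ADP detection or TR-fluorescence. Reported as % inhibition or IC50.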

A further test concerns the target T2, PIKfyve (Homo sapiens, UniProt Q9Y2I7).
T2 construct: Nanosyn (contract laboratory that ran the panel)
The procedure, abridged: as §1

The target in another test is T3, SGK3 (Homo sapiens, UniProt Q96BR1).
T3 construct: Nanosyn (contract laboratory that ran the panel)
T3 sequence (Q96BR1 1-496): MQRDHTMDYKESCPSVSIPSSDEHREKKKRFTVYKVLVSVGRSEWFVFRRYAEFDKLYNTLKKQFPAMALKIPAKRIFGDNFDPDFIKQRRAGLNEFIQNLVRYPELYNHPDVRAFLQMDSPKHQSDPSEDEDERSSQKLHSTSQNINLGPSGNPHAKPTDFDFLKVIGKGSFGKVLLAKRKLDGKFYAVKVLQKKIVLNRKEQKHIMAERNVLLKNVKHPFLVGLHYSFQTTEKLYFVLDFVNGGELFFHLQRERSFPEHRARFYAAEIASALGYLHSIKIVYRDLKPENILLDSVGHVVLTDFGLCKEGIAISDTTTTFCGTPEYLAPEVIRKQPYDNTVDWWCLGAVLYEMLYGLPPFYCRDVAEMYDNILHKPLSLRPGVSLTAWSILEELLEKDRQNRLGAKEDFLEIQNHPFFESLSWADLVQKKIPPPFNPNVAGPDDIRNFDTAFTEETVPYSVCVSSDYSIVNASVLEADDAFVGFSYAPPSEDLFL
The procedure, abridged: as §1

A further test concerns the target T4, Abl1 (Homo sapiens, UniProt P00519).
T4 construct: purchased Nanosyn (contract screening)
The method, boiled down: as §1

In the next test the target is T5, SPHK2 (Homo sapiens, UniProt Q9NRA0).
T5 construct: Nanosyn (contract laboratory that ran the panel)
T5 sequence (Q9NRA0 1-654): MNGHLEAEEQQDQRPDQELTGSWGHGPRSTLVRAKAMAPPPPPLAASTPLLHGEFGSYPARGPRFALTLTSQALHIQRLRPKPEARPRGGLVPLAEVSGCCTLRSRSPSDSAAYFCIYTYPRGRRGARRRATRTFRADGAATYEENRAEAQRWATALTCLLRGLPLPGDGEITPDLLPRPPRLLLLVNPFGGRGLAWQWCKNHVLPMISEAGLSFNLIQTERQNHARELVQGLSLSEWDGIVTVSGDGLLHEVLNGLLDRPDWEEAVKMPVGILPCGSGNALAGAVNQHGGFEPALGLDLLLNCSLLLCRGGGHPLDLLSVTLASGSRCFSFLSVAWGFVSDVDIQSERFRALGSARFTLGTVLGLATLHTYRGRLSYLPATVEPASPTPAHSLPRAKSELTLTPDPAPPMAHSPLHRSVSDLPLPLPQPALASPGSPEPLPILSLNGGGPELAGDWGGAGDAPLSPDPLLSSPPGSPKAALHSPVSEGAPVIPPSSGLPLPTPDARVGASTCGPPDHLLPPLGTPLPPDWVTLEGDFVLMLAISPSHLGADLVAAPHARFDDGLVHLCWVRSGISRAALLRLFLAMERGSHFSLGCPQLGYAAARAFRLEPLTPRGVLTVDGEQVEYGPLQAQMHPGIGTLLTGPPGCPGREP
The procedure, abridged: as §1

For another test, the target named is T6, TAOK2 (Homo sapiens, UniProt Q9UL54).
T6 construct: Nanosyn (contract laboratory that ran the panel)
T6 sequence (Q9UL54 1-1235): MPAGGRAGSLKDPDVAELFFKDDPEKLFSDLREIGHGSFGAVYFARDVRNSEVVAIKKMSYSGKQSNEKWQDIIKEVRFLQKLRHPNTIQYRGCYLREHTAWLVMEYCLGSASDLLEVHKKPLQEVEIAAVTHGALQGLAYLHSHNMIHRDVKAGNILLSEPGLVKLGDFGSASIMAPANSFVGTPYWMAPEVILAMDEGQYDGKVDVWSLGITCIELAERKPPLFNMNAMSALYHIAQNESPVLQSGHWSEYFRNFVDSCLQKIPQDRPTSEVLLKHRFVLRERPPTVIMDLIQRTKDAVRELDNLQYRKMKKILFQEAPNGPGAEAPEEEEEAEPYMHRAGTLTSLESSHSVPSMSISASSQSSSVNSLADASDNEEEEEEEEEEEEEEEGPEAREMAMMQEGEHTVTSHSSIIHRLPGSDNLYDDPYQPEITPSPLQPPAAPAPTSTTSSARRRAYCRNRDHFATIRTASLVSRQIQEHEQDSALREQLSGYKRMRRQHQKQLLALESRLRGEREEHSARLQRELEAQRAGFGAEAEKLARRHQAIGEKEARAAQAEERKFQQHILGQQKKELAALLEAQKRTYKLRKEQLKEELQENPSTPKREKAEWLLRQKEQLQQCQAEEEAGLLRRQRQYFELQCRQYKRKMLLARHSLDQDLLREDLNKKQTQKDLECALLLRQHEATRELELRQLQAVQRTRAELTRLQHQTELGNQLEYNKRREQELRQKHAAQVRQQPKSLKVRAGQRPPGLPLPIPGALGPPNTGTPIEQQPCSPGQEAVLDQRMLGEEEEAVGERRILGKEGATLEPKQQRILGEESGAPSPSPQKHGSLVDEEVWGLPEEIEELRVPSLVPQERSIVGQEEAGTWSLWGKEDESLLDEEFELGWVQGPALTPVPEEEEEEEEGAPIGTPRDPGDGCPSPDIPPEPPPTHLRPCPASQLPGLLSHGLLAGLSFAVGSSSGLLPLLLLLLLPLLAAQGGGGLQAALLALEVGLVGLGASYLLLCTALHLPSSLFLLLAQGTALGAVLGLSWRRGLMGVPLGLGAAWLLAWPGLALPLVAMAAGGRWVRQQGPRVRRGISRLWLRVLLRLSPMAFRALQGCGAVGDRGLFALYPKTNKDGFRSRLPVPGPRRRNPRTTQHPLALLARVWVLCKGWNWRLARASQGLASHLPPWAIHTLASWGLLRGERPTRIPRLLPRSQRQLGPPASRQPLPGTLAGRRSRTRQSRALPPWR
The procedure, abridged: as §1

Consider 4 compounds from US20240400577A1, “MODULATORS OF PROTEIN KINASES” (VIBLIOME THERAPEUTICS, LLC, priority 2021, published 2024).

Bounds are passed on as bounds.

T1 sequence (Q9HAZ1 whole entry): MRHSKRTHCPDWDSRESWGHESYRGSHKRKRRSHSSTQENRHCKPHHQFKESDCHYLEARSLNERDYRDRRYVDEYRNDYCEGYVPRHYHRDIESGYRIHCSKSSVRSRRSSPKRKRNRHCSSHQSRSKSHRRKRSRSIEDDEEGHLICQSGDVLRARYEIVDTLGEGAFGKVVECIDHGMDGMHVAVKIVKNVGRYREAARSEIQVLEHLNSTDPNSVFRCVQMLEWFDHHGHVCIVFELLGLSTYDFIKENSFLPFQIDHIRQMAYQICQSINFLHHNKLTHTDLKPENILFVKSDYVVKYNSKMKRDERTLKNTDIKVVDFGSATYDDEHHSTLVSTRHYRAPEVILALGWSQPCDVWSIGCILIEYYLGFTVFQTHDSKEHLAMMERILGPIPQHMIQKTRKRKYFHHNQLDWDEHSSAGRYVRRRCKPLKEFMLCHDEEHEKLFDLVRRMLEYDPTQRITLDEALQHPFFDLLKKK
T2 sequence (Q9Y2I7 whole entry): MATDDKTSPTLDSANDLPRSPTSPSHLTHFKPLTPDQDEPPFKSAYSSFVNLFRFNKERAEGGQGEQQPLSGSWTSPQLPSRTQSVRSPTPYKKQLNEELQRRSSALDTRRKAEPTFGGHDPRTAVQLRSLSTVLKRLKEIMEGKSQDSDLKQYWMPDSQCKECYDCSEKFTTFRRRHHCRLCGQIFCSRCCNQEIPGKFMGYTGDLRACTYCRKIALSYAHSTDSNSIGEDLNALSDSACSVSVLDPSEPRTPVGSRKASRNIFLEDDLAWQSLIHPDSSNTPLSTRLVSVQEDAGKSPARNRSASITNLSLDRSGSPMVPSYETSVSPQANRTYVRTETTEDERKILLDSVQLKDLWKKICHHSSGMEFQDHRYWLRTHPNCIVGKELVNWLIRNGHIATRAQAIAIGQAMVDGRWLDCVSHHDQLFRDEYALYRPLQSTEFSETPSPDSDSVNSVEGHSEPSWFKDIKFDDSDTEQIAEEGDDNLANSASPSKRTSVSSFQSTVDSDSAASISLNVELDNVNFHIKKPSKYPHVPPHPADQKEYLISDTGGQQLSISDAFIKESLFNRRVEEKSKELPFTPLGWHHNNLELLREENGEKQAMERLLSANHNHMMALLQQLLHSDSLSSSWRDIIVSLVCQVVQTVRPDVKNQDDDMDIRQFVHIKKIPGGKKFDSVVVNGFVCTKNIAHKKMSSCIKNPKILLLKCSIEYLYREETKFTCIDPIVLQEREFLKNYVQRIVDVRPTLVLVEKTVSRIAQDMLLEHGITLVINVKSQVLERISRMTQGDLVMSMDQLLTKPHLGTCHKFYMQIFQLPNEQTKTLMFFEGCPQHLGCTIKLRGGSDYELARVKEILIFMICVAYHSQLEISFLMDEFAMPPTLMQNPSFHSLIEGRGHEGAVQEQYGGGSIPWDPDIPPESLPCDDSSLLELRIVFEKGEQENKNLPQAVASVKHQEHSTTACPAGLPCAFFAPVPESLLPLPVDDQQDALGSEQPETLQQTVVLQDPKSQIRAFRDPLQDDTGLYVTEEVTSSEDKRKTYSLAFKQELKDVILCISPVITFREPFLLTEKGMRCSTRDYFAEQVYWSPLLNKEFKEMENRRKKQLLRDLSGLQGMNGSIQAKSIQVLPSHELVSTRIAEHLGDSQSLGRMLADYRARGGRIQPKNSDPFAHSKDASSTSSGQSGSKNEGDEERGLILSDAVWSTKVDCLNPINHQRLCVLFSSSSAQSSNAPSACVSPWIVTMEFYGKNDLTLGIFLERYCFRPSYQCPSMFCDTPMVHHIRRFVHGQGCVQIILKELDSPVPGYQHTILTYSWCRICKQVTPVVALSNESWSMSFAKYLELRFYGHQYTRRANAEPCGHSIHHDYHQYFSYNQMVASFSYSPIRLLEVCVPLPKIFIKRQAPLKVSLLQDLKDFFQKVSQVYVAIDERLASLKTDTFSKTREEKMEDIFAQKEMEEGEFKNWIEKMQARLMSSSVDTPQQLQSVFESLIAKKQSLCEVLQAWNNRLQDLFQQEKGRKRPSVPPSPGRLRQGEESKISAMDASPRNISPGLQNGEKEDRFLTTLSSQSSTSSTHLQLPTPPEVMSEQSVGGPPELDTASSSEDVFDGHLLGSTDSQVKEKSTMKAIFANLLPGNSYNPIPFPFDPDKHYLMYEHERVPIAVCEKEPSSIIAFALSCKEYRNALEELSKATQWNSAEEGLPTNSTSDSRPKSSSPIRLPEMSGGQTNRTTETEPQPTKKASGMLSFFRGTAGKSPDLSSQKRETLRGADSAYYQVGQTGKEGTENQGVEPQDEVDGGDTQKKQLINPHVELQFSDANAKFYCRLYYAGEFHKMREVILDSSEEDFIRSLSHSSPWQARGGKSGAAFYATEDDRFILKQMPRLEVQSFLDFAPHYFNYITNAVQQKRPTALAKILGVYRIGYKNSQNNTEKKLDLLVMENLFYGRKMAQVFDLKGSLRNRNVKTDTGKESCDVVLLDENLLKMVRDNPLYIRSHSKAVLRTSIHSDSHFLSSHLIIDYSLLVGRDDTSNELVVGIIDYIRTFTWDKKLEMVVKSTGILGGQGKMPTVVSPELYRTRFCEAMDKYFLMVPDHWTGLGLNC
T4 sequence (P00519 whole entry): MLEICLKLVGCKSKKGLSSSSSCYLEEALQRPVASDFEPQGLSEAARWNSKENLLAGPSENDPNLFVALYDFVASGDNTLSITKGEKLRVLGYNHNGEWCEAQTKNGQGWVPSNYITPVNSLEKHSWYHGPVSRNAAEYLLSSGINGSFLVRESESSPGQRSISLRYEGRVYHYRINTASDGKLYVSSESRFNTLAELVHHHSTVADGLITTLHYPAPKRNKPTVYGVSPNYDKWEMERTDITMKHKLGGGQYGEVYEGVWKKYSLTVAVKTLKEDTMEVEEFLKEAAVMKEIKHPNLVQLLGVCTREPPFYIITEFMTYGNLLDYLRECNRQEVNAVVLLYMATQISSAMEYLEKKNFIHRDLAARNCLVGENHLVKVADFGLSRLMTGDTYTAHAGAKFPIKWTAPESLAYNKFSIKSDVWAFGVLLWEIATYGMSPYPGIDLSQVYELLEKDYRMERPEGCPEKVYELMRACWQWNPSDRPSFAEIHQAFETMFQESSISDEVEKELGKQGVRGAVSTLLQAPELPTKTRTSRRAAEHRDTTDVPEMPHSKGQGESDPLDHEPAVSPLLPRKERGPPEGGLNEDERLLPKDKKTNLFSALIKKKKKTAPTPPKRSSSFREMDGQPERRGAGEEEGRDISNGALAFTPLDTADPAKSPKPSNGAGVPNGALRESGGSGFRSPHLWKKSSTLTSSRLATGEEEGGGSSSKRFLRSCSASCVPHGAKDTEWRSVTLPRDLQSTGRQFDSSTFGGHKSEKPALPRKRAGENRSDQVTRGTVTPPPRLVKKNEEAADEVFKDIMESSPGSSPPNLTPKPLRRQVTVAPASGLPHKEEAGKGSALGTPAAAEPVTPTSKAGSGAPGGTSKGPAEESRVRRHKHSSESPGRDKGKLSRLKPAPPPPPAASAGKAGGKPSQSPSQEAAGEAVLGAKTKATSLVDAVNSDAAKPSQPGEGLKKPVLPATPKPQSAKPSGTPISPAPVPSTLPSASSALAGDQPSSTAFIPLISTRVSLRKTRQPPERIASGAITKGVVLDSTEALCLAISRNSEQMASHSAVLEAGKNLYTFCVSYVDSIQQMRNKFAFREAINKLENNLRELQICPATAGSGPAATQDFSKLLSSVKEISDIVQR

As for `Cc1ccc(NC(=O)c2cc(S(C)(=O)=O)n(-c3ccc(F)cc3)n2)cc1C#Cc1cnc2cccnn12` [Ex14, 1-(4-fluorophenyl)-N-(3-(imidazo[1,2-b]pyridazin-3-ylethynyl)-4-methylphenyl)-5-(methylsulfonyl)-1H-pyrazole-3-carboxamide], the inhibition – broadly, the change of the read-out against control, counted positive when it falls – at 5 µM is < 79% against CLK4; 80 to 89% against PIKfyve; < 79% at SGK3; < 79% at Abl1; < 79% at SPHK2; < 79% against TAOK2.

For the compound `CCOC(=O)Nc1cn2nc(Nc3cc(NC(=O)c4cc(S(C)(=O)=O)n(-c5ccc(F)cc5)n4)ccc3C)ccc2n1` [Ex15, ethyl (6-((5-(1-(4-fluorophenyl)-5-(methylsulfonyl)-1H-pyrazole-3-carboxamido)-2-methylphenyl)amino)imidazo[1,2-b]pyridazin-2-yl)carbamate], the inhibition at 5 µM is < 79% on CLK4; < 79% against PIKfyve; < 79% against SGK3; ≥ 95% on Abl1; < 79% against SPHK2; < 79% against TAOK2.

As to `CNC(=O)c1cc(Oc2ccc(NC(=O)c3cc(S(C)(=O)=O)n(-c4ccc(F)cc4)n3)c(F)c2)ccn1` [Ex17, 4-(3-fluoro-4-(1-(4-fluorophenyl)-5-(methylsulfonyl)-1H-pyrazole-3-carboxamido)phenoxy)-N-methylpicolinamide], the inhibition at 5 µM on CLK4, at PIKfyve, on SGK3, on Abl1, against SPHK2 and on TAOK2 was < 79% throughout.

For `CCOC(=O)Nc1cn2nc(Nc3cc(NC(=O)c4cc([S+](C)[O-])n(-c5ccc(F)cc5)n4)ccc3C)ccc2n1` (stereo not drawn) [Ex18, ethyl (6-((5-(1-(4-fluorophenyl)-5-(methylsulfinyl)-1H-pyrazole-3-carboxamido)-2-methylphenyl)amino)imidazo[1,2-b]pyridazin-2-yl)carbamate], the inhibition at 5 µM against CLK4 was < 79%; on PIKfyve, < 79%; at SGK3, < 79%; against Abl1 it was ≥ 95%; against SPHK2 it was 80 to 89%; against TAOK2, < 79%.
